In the NIST ThermoML archive (doi:10.1021/je200215d):
Numbers after ± are expanded uncertainties.

Legend:
[1] = xn = mol fraction of the nth substance listed; conditions: 303.15 K, Maximal bubble pressure
[2] = refractive index (Na D-line) (dimensionless); conditions: 298.15 K; 101.33 kPa; Liquid; Standard Abbe refractometry
[3] = for surface tension liquid-gas / mass density: 298.15 K; for surface tension liquid-gas: Maximal bubble pressure; for mass density: 101.33 kPa, Vibrating tube method; for mass density / vapor or sublimation pressure: Liquid; for vapor or sublimation pressure: Ebulliometric method (Recirculating still)

CCC(C)(C)OC [2-methoxy-2-methylbutane] + CCO
surface tension liquid-gas ([1]; x2 = 0): 22 ± 0.26 mN/m | surface tension liquid-gas ([1]; x2 = 0.04): 21.97 ± 0.26 mN/m | surface tension liquid-gas ([1]; x2 = 0.071): 21.95 ± 0.26 mN/m | surface tension liquid-gas ([1]; x2 = 0.137): 21.93 ± 0.26 mN/m | surface tension liquid-gas ([1]; x2 = 0.198): 21.9 ± 0.26 mN/m | surface tension liquid-gas ([1]; x2 = 0.252): 21.88 ± 0.26 mN/m | surface tension liquid-gas ([1]; x2 = 0.303): 21.86 ± 0.26 mN/m | surface tension liquid-gas ([1]; x2 = 0.41): 21.84 ± 0.26 mN/m | surface tension liquid-gas ([1]; x2 = 0.508): 21.81 ± 0.26 mN/m | surface tension liquid-gas ([1]; x2 = 0.611): 21.78 ± 0.26 mN/m | surface tension liquid-gas ([1]; x2 = 0.708): 21.76 ± 0.26 mN/m | surface tension liquid-gas ([1]; x2 = 0.803): 21.73 ± 0.26 mN/m | surface tension liquid-gas ([1]; x2 = 0.898): 21.71 ± 0.26 mN/m

CCC(C)(C)OC [2-methoxy-2-methylbutane]
refractive index [2]: 1.38712 ± 0.00072 | surface tension liquid-gas [3]: 22 ± 0.23 mN/m | mass density [3]: 765.8 ± 0.18 kg/m3 | vapor or sublimation pressure ([3]; 359.52 K): 101.33 ± 0.21 kPa

CCO [ethanol]
refractive index [2]: 1.36068 ± 0.00072 | surface tension liquid-gas [3]: 21.7 ± 0.23 mN/m | mass density [3]: 785.05 ± 0.16 kg/m3 | vapor or sublimation pressure ([3]; 351.45 K): 101.33 ± 0.21 kPa

CCO [ethanol] + CCC(C)(C)OC
surface tension liquid-gas ([1]; x1 = 1): 21.7 ± 0.26 mN/m
